According to PubChem BioAssay (NCI):
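48-hour exposure; five concentrations; linearly interpolated endpoints. The concentration for 50% growth inhibition is given as GI50. TGI: total growth inhibition.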

Tests used:
Test in all cases: growth of human tumour cells (NCI), 48 h
786-0 renal = tested on: 786-0 renal
A498 renal = tested on: A498 renal
A549 NSCLC = tested on: A549 NSCLC
ACHN renal = tested on: ACHN renal
BT-549 breast = tested on: BT-549 breast
CAKI-1 renal = tested on: CAKI-1 renal
CCRF-CEM leukemia = tested on: CCRF-CEM leukemia
COLO 205 colon = tested on: COLO 205 colon
DU-145 prostate = tested on: DU-145 prostate
EKVX NSCLC = tested on: EKVX NSCLC
HCC-2998 colon = tested on: HCC-2998 colon
HCT-116 colon = tested on: HCT-116 colon
HCT-15 colon = tested on: HCT-15 colon
HL-60(TB) leukemia = tested on: HL-60(TB) leukemia
HOP-62 NSCLC = tested on: HOP-62 NSCLC
HOP-92 NSCLC = tested on: HOP-92 NSCLC
HS 578T breast = tested on: HS 578T breast
HT29 colon = tested on: HT29 colon
IGROV1 ovarian = tested on: IGROV1 ovarian
K-562 leukemia = tested on: K-562 leukemia
KM12 colon = tested on: KM12 colon
LOX IMVI melanoma = tested on: LOX IMVI melanoma
M14 melanoma = tested on: M14 melanoma
MALME-3M melanoma = tested on: MALME-3M melanoma
MCF7 breast = tested on: MCF7 breast
MDA-MB-231 breast = tested on: MDA-MB-231 breast
MDA-MB-435 = tested on: MDA-MB-435
MDA-MB-468 breast = tested on: MDA-MB-468 breast
MOLT-4 leukemia = tested on: MOLT-4 leukemia
NCI-H226 lung = tested on: NCI-H226 lung
NCI-H23 lung = tested on: NCI-H23 lung
NCI-H460 lung = tested on: NCI-H460 lung
NCI-H522 lung = tested on: NCI-H522 lung
NCI/ADR-RES ovarian = tested on: NCI/ADR-RES ovarian
OVCAR-3 ovarian = tested on: OVCAR-3 ovarian
OVCAR-4 ovarian = tested on: OVCAR-4 ovarian
OVCAR-5 ovarian = tested on: OVCAR-5 ovarian
OVCAR-8 ovarian = tested on: OVCAR-8 ovarian
PC-3 prostate = tested on: PC-3 prostate
RPMI-8226 leukemia = tested on: RPMI-8226 leukemia
RXF 393 renal = tested on: RXF 393 renal
SF-268 CNS = tested on: SF-268 CNS
SF-295 CNS = tested on: SF-295 CNS
SF-539 CNS = tested on: SF-539 CNS
SK-MEL-2 melanoma = tested on: SK-MEL-2 melanoma
SK-MEL-28 melanoma = tested on: SK-MEL-28 melanoma
SK-MEL-5 melanoma = tested on: SK-MEL-5 melanoma
SK-OV-3 ovarian = tested on: SK-OV-3 ovarian
SN12C renal = tested on: SN12C renal
SNB-19 CNS = tested on: SNB-19 CNS
SNB-75 CNS = tested on: SNB-75 CNS
SW-620 colon = tested on: SW-620 colon
T-47D breast = tested on: T-47D breast
TK-10 renal = tested on: TK-10 renal
U251 CNS = tested on: U251 CNS
UACC-257 melanoma = tested on: UACC-257 melanoma
UACC-62 melanoma = tested on: UACC-62 melanoma
UO-31 renal = tested on: UO-31 renal

Work on `CN(C)c1nc(NCCNS(=O)(=O)c2ccc(C(=O)/C=C/c3ccc(C(F)(F)F)cc3)cc2)nc(Nc2ccc(F)cc2)n1` yielded a GI50 (786-0 renal) of 10.6 µM, a TGI (786-0 renal) of 22.7 µM and a GI50 (A498 renal) of 13 µM. For the same compound, the TGI (A498 renal) was 26.2 µM, the GI50 (A549 NSCLC) was 10 µM and the TGI (A549 NSCLC) was 25.4 µM. The GI50 (ACHN renal) was 5.08 µM, the TGI (ACHN renal) was 17.4 µM and the GI50 (BT-549 breast) was 12.7 µM. It also gave a TGI (BT-549 breast) of 25.6 µM, a GI50 (CAKI-1 renal) of 6.46 µM and a TGI (CAKI-1 renal) of 19.7 µM. The GI50 (CCRF-CEM leukemia) was 3.79 µM, the TGI (CCRF-CEM leukemia) was over 100 µM and the GI50 (COLO 205 colon) was 11.2 µM. It also gave a TGI (COLO 205 colon) of 24.8 µM, a GI50 (DU-145 prostate) of 11.2 µM and a TGI (DU-145 prostate) of 24 µM. The GI50 (EKVX NSCLC) was 4.2 µM, the TGI (EKVX NSCLC) was 15.7 µM and the GI50 (HCC-2998 colon) was 1.77 µM. The TGI (HCC-2998 colon) was 3.61 µM, the GI50 (HCT-116 colon) was 1.68 µM and the TGI (HCT-116 colon) was 3.13 µM. For the same compound, the GI50 (HCT-15 colon) was 3.22 µM, the TGI (HCT-15 colon) was 11.9 µM and the GI50 (HL-60(TB) leukemia) was 3.82 µM. The TGI (HL-60(TB) leukemia) was 30 µM, the GI50 (HOP-62 NSCLC) was 13.6 µM and the TGI (HOP-62 NSCLC) was 27.7 µM. It also gave a GI50 (HOP-92 NSCLC) of 6.15 µM, a TGI (HOP-92 NSCLC) of 20.7 µM and a GI50 (HS 578T breast) of 12.7 µM. It also gave a TGI (HS 578T breast) of 49.5 µM, a GI50 (HT29 colon) of 1.91 µM and a TGI (HT29 colon) of 3.95 µM. The GI50 (IGROV1 ovarian) was 12.3 µM, the TGI (IGROV1 ovarian) was 24.9 µM and the GI50 (K-562 leukemia) was 2.98 µM. The TGI (K-562 leukemia) was 30.4 µM, the GI50 (KM12 colon) was 2.38 µM and the TGI (KM12 colon) was 6 µM. It also gave a GI50 (LOX IMVI melanoma) of 1.86 µM, a TGI (LOX IMVI melanoma) of 3.84 µM and a GI50 (M14 melanoma) of 3.39 µM. The TGI (M14 melanoma) was 12.9 µM, the GI50 (MALME-3M melanoma) was 14.2 µM and the TGI (MALME-3M melanoma) was 27.5 µM. The GI50 (MCF7 breast) was 1.7 µM, the TGI (MCF7 breast) was 3.56 µM and the GI50 (MDA-MB-231 breast) was 8.38 µM. For the same compound, the TGI (MDA-MB-231 breast) was 20.8 µM, the GI50 (MDA-MB-435) was 2.86 µM and the TGI (MDA-MB-435) was 8.49 µM. The GI50 (MDA-MB-468 breast) was 4.53 µM, the TGI (MDA-MB-468 breast) was 17 µM and the GI50 (MOLT-4 leukemia) was 2.9 µM. The TGI (MOLT-4 leukemia) was 9.61 µM, the GI50 (NCI-H226 lung) was 7.82 µM and the TGI (NCI-H226 lung) was 24.7 µM. For the same compound, the GI50 (NCI-H23 lung) was 11.2 µM, the TGI (NCI-H23 lung) was 24.2 µM and the GI50 (NCI-H460 lung) was 4.09 µM. For the same compound, the TGI (NCI-H460 lung) was 14.9 µM, the GI50 (NCI-H522 lung) was 11.2 µM and the TGI (NCI-H522 lung) was 24.7 µM. It also gave a GI50 (NCI/ADR-RES ovarian) of 10.7 µM, a TGI (NCI/ADR-RES ovarian) of 23.7 µM and a GI50 (OVCAR-3 ovarian) of 2.04 µM. The TGI (OVCAR-3 ovarian) was 5.61 µM, the GI50 (OVCAR-4 ovarian) was 8.78 µM and the TGI (OVCAR-4 ovarian) was 23.1 µM. It also gave a GI50 (OVCAR-5 ovarian) of 12 µM, a TGI (OVCAR-5 ovarian) of 24.4 µM and a GI50 (OVCAR-8 ovarian) of 12.3 µM. It also gave a TGI (OVCAR-8 ovarian) of 30.6 µM, a GI50 (PC-3 prostate) of 4.15 µM and a TGI (PC-3 prostate) of 18.2 µM. The GI50 (RPMI-8226 leukemia) was 3 µM, the TGI (RPMI-8226 leukemia) was over 100 µM and the GI50 (RXF 393 renal) was 3.7 µM. The TGI (RXF 393 renal) was 16 µM, the GI50 (SF-268 CNS) was 7.71 µM and the TGI (SF-268 CNS) was 22.5 µM. The GI50 (SF-295 CNS) was 11.3 µM, the TGI (SF-295 CNS) was 23.5 µM and the GI50 (SF-539 CNS) was 10.7 µM. It also gave a TGI (SF-539 CNS) of 22.5 µM, a GI50 (SK-MEL-2 melanoma) of 9.45 µM and a TGI (SK-MEL-2 melanoma) of 22.3 µM. For the same compound, the GI50 (SK-MEL-28 melanoma) was 10.4 µM, the TGI (SK-MEL-28 melanoma) was 22.2 µM and the GI50 (SK-MEL-5 melanoma) was 10.4 µM. The TGI (SK-MEL-5 melanoma) was 22.2 µM, the GI50 (SK-OV-3 ovarian) was 13.7 µM and the TGI (SK-OV-3 ovarian) was 27.8 µM. For the same compound, the GI50 (SN12C renal) was 6.36 µM, the TGI (SN12C renal) was 19.9 µM and the GI50 (SNB-19 CNS) was 12 µM. The TGI (SNB-19 CNS) was 24.3 µM, the GI50 (SNB-75 CNS) was 8.41 µM and the TGI (SNB-75 CNS) was 22.7 µM. The GI50 (SW-620 colon) was 2.24 µM, the TGI (SW-620 colon) was 5.06 µM and the GI50 (T-47D breast) was 5.16 µM. The TGI (T-47D breast) was 19.6 µM, the GI50 (TK-10 renal) was 17.4 µM and the TGI (TK-10 renal) was 32 µM. It also gave a GI50 (U251 CNS) of 3.42 µM, a TGI (U251 CNS) of 13 µM and a GI50 (UACC-257 melanoma) of 11 µM. It also gave a TGI (UACC-257 melanoma) of 25 µM, a GI50 (UACC-62 melanoma) of 6.24 µM and a TGI (UACC-62 melanoma) of 19.4 µM. The GI50 (UO-31 renal) was 6.41 µM and the TGI (UO-31 renal) was 19.9 µM.
